Key:
pS129 a-syn puncta = experiment: PFF-induced a-syn seeding, pS129 a-syn puncta in cortical neurons; format: cell-based, rat
Method: PFFs synthesized from recombinant human a-syn were added to primary neuronal cultures to seed recruitment of endogenous a-syn into pS129 a-syn^+ aggregates. Recombinant human a-syn PFFs were purchased from StressMarq Biosciences (SPR-322B). Cells were plated on poly-D-lysine coated glass coverslips in 24-well cell culture plates at a density of 5 × 10^5 cells/well, and incubated at 37 °C in 5% CO2 with half media changes every 3 days. […] On day 8 post-isolation, cells were treated with 1.5 µg of recombinant a-syn PFFs. […]
Confocal images of primary cortical neurons, iPSC-derived dopaminergic neurons, and LAMP1 staining within the SN were processed using Imaris software (Oxford instruments). […] Mean pixel intensity per GFP^+ cell (for experiments using GFP-tagged peptides) or RFP^+ cell (for experiments using RFP-tagged peptides) was calculated for a-syn or LAMP1 signal using the software’s surfaces module. The software’s surfaces module was used to identify GFP^+/NeuN^+ cells, and number of pS129 a-syn^+ puncta per GFP^+/NeuN^+ cortical neuron was counted using the software’s spots module. Mean pixel intensity per RFP^+/NeuN^+ cortical neuron was calculated for Rab7, cathepsin B, or cathepsin D signals using the software’s surfaces module. […]

CD63 = CD63 levels in HEK293 cells; format: cell-based, human; settings: A53T a-syn
Method: Infected or transfected cells were scraped from six-well dishes and lysed with lysis buffer (50 mM Tris-HCl pH 7.4, 1% Nonidet P-40, 150 mM NaCl, 1 mM EDTA, 1× protease inhibitor mixture (Sigma)) for 30 min at 4 °C. The insoluble pellet was removed following a 10,000 rpm spin for 5 min at 4 °C. Lysates were analyzed by SDS-PAGE/immunoblot using 4–20% Mini-PROTEAN Tris-glycine gels (Bio-Rad), transferred to polyvinylidene fluoride (PVDF) membranes, and blocked in 5% milk containing PBS-Tween-20 (0.1%) for 1 h. PVDF membranes were then incubated with specified primary antibodies followed by incubation with horseradish peroxidase-conjugated secondary antibodies (anti-mouse HRP-linked, Cell Signaling, catalog #7076, 1:5000; anti-rabbit HRP-linked, Cell Signaling, catalog #7074, 1:5000) and detected using enhanced chemiluminescence (GE Healthcare). Anti-a-syn antibody (clone 42) was obtained from BD Biosciences (catalog #610787, 1:1000). Anti-LAMP1 antibody was obtained from Abcam (catalog #ab24170, 1:500). Anti-beta-actin antibody was obtained from Cell Signaling (13E5) (catalog #4970, 1:1000). Anti-CD63 antibody was obtained from R&D Systems (catalog #MAB50482-SP, 1:1000).

VPS4B-CHMP2B interaction = experiment: Co-immunoprecipitation: disruption of VPS4B-CHMP interaction; format: cell-based
Method: HEK293T cells were co-transfected with Flag-tagged target protein, HA-tagged source protein, and GFP-tagged peptide or GFP. Cells were lysed 48 h after transfections with radioimmune precipitation assay buffer (50 mM Tris-HCl pH 7.4, 1% Nonidet P-40, 150 mM NaCl, 1 mM EDTA, 10 mM Na3VO4, 10 mM sodium pyrophosphate, 25 mM NaF, 1× protease inhibitor mixture (Sigma)) for 30 min at 4 °C and co-immunoprecipitated with Flag beads (Clontech). The resulting immunocomplexes were analyzed by immunoblot using the appropriate antibodies. Protein samples were separated using 4–20% Mini-PROTEAN Tris-glycine gels (Bio-Rad) transferred to PVDF membranes and blocked in 5% milk containing PBS-Tween-20 (0.1%) for 1 h. PVDF membranes were then incubated with specified primary antibodies followed by incubation with horseradish peroxidase-conjugated secondary antibodies (anti-mouse HRP-linked, Cell Signaling, catalog #7076, 1:5000; anti-rabbit HRP-linked, Cell Signaling, catalog #7074, 1:5000) and detected using enhanced chemiluminescence (GE Healthcare). HA antibodies were obtained from Santa Cruz (catalog #7392, 1:2000), GFP antibodies were purchased from Abcam (catalog #ab290, 1:2000), and Flag antibodies were purchased from Sigma (catalog #A8592, 1:1000).

Rab7 = Rab7 fluorescence in rat cortical neurons; format: cell-based; settings: A53T a-syn
Excerpt: Pregnant rats (E17) of the Sprague-Dawley strain were purchased from Envigo. Embryos were surgically removed from the mothers and cortices dissected in Hanks Balanced salt solution (Gibco). The meninges were removed, and cells were dissociated using a papain dissociation system (Worthington) before being resuspended in Neurobasal medium A supplemented with antibiotic-antimycotic solution (Gibco), L-glutamine substitute (GlutaMAX™; Gibco) and factor B27 (Gibco). […]
After fixation, cells were permeabilized with 0.2% Triton-X-100 for 15 min, washed three times with PBS and then incubated with blocking solution (1% BSA, 22.52 mg/mL glycine, 0.1% Tween-20 in PBS or 0.4% saponin, 1% BSA, and 5% goat or donkey serum in PBS) for 1 h. […] Following another three washes with PBS, nuclei were counterstained with DAPI (ThermoFisher) and then coverslips were mounted on slides using Dako fluorescence mounting medium (Agilent) and sealed using clear nail varnish.
Confocal images of primary cortical neurons, iPSC-derived dopaminergic neurons, and LAMP1 staining within the SN were processed using Imaris software (Oxford instruments). […] Mean pixel intensity per GFP^+ cell (for experiments using GFP-tagged peptides) or RFP^+ cell (for experiments using RFP-tagged peptides) was calculated for a-syn or LAMP1 signal using the software’s surfaces module. […]

## DEEIERQLKALG [PDpep1.3]
pS129 a-syn puncta
  Effect on endogenous a-syn aggregates: reduced the number of endogenous a-syn aggregates
CD63
  Effect on CD63 levels: return of CD63
VPS4B-CHMP2B interaction
  Effect on VPS4B-CHMP2B interaction: inhibits the CHMP2B-VPS4 interaction
Rab7
  Effect on Rab7: normalized

Source: paper PMC10115881, “Disrupting the α-synuclein-ESCRT interaction with a peptide inhibitor mitigates neurodegeneration in preclinical models of Parkinson’s disease” (Nature Communications, 2023)
